For 27 molecules, IC50 results are on record in US20230339939A1 (Bayer Aktiengesellschaft, priority 2020, published 2023).

In one experiment the target is CSNK1A1 (Homo sapiens (Human), UniProt P48729). The experiment is described as follows: CSNK1A1 Assay 2 (ADP-Glo, 1 μM ATP, substrate biotin-Ahx-KRRRAL-pS-VASLPGL). Type of experiment: biochemical. Conditions: median, read-out: CSNK1A1 Assay 2 IC50 [mol/l] (median). A digest of the protocol: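 GST-tagged full-length human CSNK1A1 from baculovirus-infected insect cells (about 0.0375 ng/μL), preincubated 15 min at 22 °C with compound in HEPES pH 7.5 buffer, with 1 μM ATP and biotin-Ahx-KRRRAL-pS-VASLPGL substrate. ADP formed read by ADP-Glo luminescence.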

Another experiment concerns the target CSNK1D (Homo sapiens (Human), UniProt P48730). As to the kind of experiment: CSNK1D Assay (ADP-Glo, 1 μM ATP). The settings on record: median, read-out: CSNK1D IC50 [mol/l] (median). Type of experiment: biochemical. An outline of the steps: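 Enzyme is N-terminal GST-tagged full-length human CSNK1D from baculovirus-infected insect cells (typically about 0.5 ng/μL), with a biotinylated peptide substrate and 1 μM ATP. Compound pre-incubated 15 min at 22° C in HEPES pH 7.5 buffer; ADP formed is read by ADP-Glo luminescence.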
(In general: In ADP-Glo the light output rises with the ADP produced.)

CSNK1A1, sequence (P48729 whole entry): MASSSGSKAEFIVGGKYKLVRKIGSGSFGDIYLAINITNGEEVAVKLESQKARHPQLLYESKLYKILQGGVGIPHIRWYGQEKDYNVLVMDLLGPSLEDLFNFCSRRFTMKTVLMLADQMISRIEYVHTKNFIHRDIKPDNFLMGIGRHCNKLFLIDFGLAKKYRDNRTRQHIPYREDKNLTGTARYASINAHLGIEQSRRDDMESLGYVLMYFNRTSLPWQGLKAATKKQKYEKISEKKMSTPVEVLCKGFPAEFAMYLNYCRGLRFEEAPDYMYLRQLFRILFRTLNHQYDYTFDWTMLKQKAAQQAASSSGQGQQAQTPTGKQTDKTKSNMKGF
CSNK1D, sequence (P48730 whole entry): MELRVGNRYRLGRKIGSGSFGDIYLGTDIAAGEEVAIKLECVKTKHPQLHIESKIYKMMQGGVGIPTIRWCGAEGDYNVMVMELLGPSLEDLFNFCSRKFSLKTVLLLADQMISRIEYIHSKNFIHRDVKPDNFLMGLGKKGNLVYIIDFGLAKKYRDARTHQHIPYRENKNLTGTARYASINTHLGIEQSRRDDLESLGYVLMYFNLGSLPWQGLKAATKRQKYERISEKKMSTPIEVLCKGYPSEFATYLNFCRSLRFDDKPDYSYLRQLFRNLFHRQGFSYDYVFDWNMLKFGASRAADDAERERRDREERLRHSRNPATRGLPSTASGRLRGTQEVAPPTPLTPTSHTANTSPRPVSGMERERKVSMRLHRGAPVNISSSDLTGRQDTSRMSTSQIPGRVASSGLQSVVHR

`O=C(Cc1ccc(F)cc1)Nc1cc(-c2[nH]c3cccnc3c2-c2ncccn2)ccn1` [Example 51, 2-(4-fluorophenyl)-N-{4-[3-(pyrimidin-2-yl)-1H-pyrrolo[3,2-b]pyridin-2-yl]pyridin-2-yl}acetamide]: the IC50 is 7.93 nM at CSNK1A1 and 20 nM on CSNK1D.
As to `COc1ccnc2c(-c3ccccn3)c(-c3ccnc(NC(=O)Cc4ccc(F)cc4)c3)[nH]c12` [Example 31, 2-(4-fluorophenyl)-N-{4-[7-methoxy-3-(pyridin-2-yl)-1H-pyrrolo[3,2-b]pyridin-2-yl]pyridin-2-yl}acetamide], the IC50 on CSNK1A1 is 2.5 nM; at CSNK1D, 4.4 nM.
As to `CCc1ccnc2c(-c3ccccn3)c(-c3ccnc(NC(=O)Cc4ccc(F)cc4)c3)[nH]c12` [Example 34, N-{4-[7-ethyl-3-(pyridin-2-yl)-1H-pyrrolo[3,2-b]pyridin-2-yl]pyridin-2-yl}-2-(4-fluorophenyl)acetamide], the IC50 at CSNK1A1 worked out at 3.08 nM; at CSNK1D, 3.84 nM.
The matching figures for `CC(C(=O)Nc1cc(-c2[nH]c3cccnc3c2-c2ccccn2)ccn1)c1ccc(F)cc1` (single isomer, unassigned; (-)) [Example 8, (−)-2-(4-fluorophenyl)-N-{4-[3-(pyridin-2-yl)-1H-pyrrolo[3,2-b]pyridin-2-yl]pyridin-2-yl}propanamide]: 7.53 nM and 14.6 nM.
With `COCC(C(=O)Nc1cc(-c2[nH]c3cc(F)cnc3c2-c2ccccn2)ccn1)c1ccc(F)cc1` (racemic) [Example 45, (2RS)-2-(4-fluorophenyl)-N-[4-[6-fluoro-3-(2-pyridyl)-1H-pyrrolo[3,2-b]pyridin-2-yl]-2-pyridyl]-3-methoxy-propanamide], the IC50 was determined as 4.83 nM at CSNK1A1 and 12 nM at CSNK1D.
The matching figures for `O=C(Cc1ccc(F)cc1)Nc1cc(-c2[nH]c3cccnc3c2-c2ccccn2)ccn1` [Example 5, 2-(4-fluorophenyl)-N-{4-[3-(pyridin-2-yl)-1H-pyrrolo[3,2-b]pyridin-2-yl]pyridin-2-yl}acetamide]: 1.06 nM and 2.68 nM.
The matching figures for `CC(C(=O)Nc1cc(-c2[nH]c3cccnc3c2-c2ccccn2)ccn1)c1ccc(F)cc1` (single isomer, unassigned; (+)) [Example 7, (+)-2-(4-fluorophenyl)-N-{4-[3-(pyridin-2-yl)-1H-pyrrolo[3,2-b]pyridin-2-yl]pyridin-2-yl}propanamide]: 0.949 nM and 2.1 nM.
Take `CN1CCN(c2ccnc3c(-c4ccccn4)c(-c4ccnc(NC(=O)Cc5ccc(F)cc5)c4)[nH]c23)CC1` [Example 38, 2-(4-fluorophenyl)-N-{4-[7-(4-methylpiperazin-1-yl)-3-(pyridin-2-yl)-1H-pyrrolo[3,2-b]pyridin-2-yl]pyridin-2-yl}acetamide]: the IC50 was found to be 3.32 nM on CSNK1A1 and 5.59 nM at CSNK1D.
On the same counts, the results for `CC(C(=O)Nc1cc(-c2[nH]c3ccc(F)nc3c2-c2ccccn2)ccn1)c1ccc(F)cc1` (single isomer, unassigned; (-)) [Example 2, (−)-2-(4-fluorophenyl)-N-{4-[5-fluoro-3-(pyridin-2-yl)-1H-pyrrolo[3,2-b]pyridin-2-yl]pyridin-2-yl}propanamide] are 10.9 nM and 32.2 nM.
Regarding `O=C(Cc1ccc(F)cc1)Nc1cc(-c2[nH]c3cccnc3c2-c2ccc(Cl)s2)ccn1` [Example 17, N-{4-[3-(5-chlorothiophen-2-yl)-1H-pyrrolo[3,2-b]pyridin-2-yl]pyridin-2-yl}-2-(4-fluorophenyl)acetamide], the results for the IC50 on CSNK1A1 and at CSNK1D were 1.88 nM and 3.15 nM, respectively.
`CC(C)C(C(=O)Nc1cc(-c2[nH]c3ccc(F)nc3c2-c2ccccn2)ccn1)c1ccc(F)cc1` (single isomer, unassigned; (+)) [Example 26, (+)-2-(4-fluorophenyl)-N-{4-[5-fluoro-3-(pyridin-2-yl)-1H-pyrrolo[3,2-b]pyridin-2-yl]pyridin-2-yl}-3-methylbutanamide]: the figures for the IC50 on CSNK1A1 and at CSNK1D were 3.5 nM and 7.62 nM, respectively.
Turning to `O=C(Cc1ccc(Cl)cc1)Nc1cc(-c2[nH]c3cccnc3c2-c2ccccn2)ccn1` [Example 42, 2-(4-chlorophenyl)-N-{4-[3-(pyridin-2-yl)-1H-pyrrolo[3,2-b]pyridin-2-yl]pyridin-2-yl}acetamide], the IC50 stood at 1.23 nM at CSNK1A1 and 3.33 nM on CSNK1D.
The matching figures for `CC(C(=O)Nc1cc(-c2[nH]c3ccc(F)nc3c2-c2ccccn2)ccn1)c1ccc(F)cc1` (single isomer, unassigned; (+)) [Example 3, (+)-2-(4-fluorophenyl)-N-{4-[5-fluoro-3-(pyridin-2-yl)-1H-pyrrolo[3,2-b]pyridin-2-yl]pyridin-2-yl}propanamide]: 1 nM and 2.87 nM.
`COCCc1ccnc2c(-c3ccccn3)c(-c3ccnc(NC(=O)Cc4ccc(F)cc4)c3)[nH]c12` [Example 36, 2-(4-fluorophenyl)-N-{4-[7-(2-methoxyethyl)-3-(pyridin-2-yl)-1H-pyrrolo[3,2-b]pyridin-2-yl]pyridin-2-yl}acetamide]: the IC50 on CSNK1A1 and at CSNK1D was 14.8 nM each time.
Turning to `O=C(Cc1ccccc1)Nc1cc(-c2[nH]c3cccnc3c2-c2ccccn2)ccn1` [Example 46, 2-phenyl-N-(4-(3-(pyridin-2-yl)-1H-pyrrolo[3,2-b]pyridin-2-yl)pyridin-2-yl)acetamide], the IC50 at CSNK1A1 was found to be 2.25 nM; on CSNK1D it was 5.77 nM.
On the same counts, the results for `Cc1cc(CC(=O)Nc2cc(-c3[nH]c4cccnc4c3-c3ccccn3)ccn2)ccc1F` [Example 41, 2-(4-fluoro-3-methylphenyl)-N-{4-[3-(pyridin-2-yl)-1H-pyrrolo[3,2-b]pyridin-2-yl]pyridin-2-yl}acetamide] are 4.03 nM and 12.1 nM.
The matching figures for `Cc1cc2[nH]c(-c3ccnc(NC(=O)C(C)c4ccc(F)cc4)c3)c(-c3ccccn3)c2nc1F` (racemic) [Example 28, N-{4-[5-fluoro-6-methyl-3-(pyridin-2-yl)-1H-pyrrolo[3,2-b]pyridin-2-yl]pyridin-2-yl}-2-(4-fluorophenyl)propanamide]: 4.61 nM and 11.3 nM.
The matching figures for `CC(C(=O)Nc1cc(-c2[nH]c3cccnc3c2-c2ccccc2)ccn1)c1ccc(F)cc1` (racemic) [Example 11, 2-(4-fluorophenyl)-N-[4-(3-phenyl-1H-pyrrolo[3,2-b]pyridin-2-yl)pyridin-2-yl]propanamide]: 6.11 nM and 7.02 nM.
In the case of `O=C(Cc1ccc(F)cc1)Nc1cc(-c2[nH]c3ccc(F)nc3c2-c2ccccn2)ccn1` [Example 4, 2-(4-fluorophenyl)-N-{4-[5-fluoro-3-(pyridin-2-yl)-1H-pyrrolo[3,2-b]pyridin-2-yl]pyridin-2-yl}acetamide], the IC50 was 0.739 nM at CSNK1A1 and 2.33 nM on CSNK1D.
On the same counts, the results for `O=C(Cc1ccc(F)cc1)Nc1cc(-c2[nH]c3cc(F)cnc3c2-c2ccccn2)ccn1` [Example 9, 2-(4-fluorophenyl)-N-{4-[6-fluoro-3-(pyridin-2-yl)-1H-pyrrolo[3,2-b]pyridin-2-yl]pyridin-2-yl}acetamide] are 1.68 nM and 4.76 nM.
Regarding `O=C(Cc1ccc(F)cc1)Nc1cc(-c2[nH]c3cc(F)cnc3c2-c2ccccc2)ccn1` [Example 10, 2-(4-fluorophenyl)-N-[4-(6-fluoro-3-phenyl-1H-pyrrolo[3,2-b]pyridin-2-yl)pyridin-2-yl]acetamide], the figures for the IC50 on CSNK1A1 and at CSNK1D were 3.83 nM and 4.27 nM, respectively.
On the same counts, the results for `O=C(Cc1ccc(F)cc1)Nc1cc(-c2[nH]c3ccc(Cl)nc3c2-c2ccccn2)ccn1` [Example 23, N-{4-[5-chloro-3-(pyridin-2-yl)-1H-pyrrolo[3,2-b]pyridin-2-yl]pyridin-2-yl}-2-(4-fluorophenyl)acetamide] are 0.941 nM and 3.18 nM.
On the same counts, the results for `O=C(Cc1ccc(F)cc1)Nc1cc(-c2[nH]c3ccnnc3c2-c2ccccn2)ccn1` [Example 21, 2-(4-fluorophenyl)-N-{4-[7-(pyridin-2-yl)-5H-pyrrolo[3,2-c]pyridazin-6-yl]pyridin-2-yl}acetamide] are 1.66 nM and 3.96 nM.
Take `O=C(Cc1ccc(F)cc1)Nc1cc(-c2[nH]c3c(Cl)ccnc3c2-c2ccccn2)ccn1` [Example 22, N-{4-[7-chloro-3-(pyridin-2-yl)-1H-pyrrolo[3,2-b]pyridin-2-yl]pyridin-2-yl}-2-(4-fluorophenyl)acetamide]: the results for the IC50 at CSNK1A1 and on CSNK1D were 1.6 nM and 5.84 nM, respectively.
For the molecule `O=C(Cc1ccc(F)cc1)Nc1cc(-c2[nH]c3cccnc3c2-c2cccc(F)c2)ccn1` [Example 15, 2-(4-fluorophenyl)-N-{4-[3-(3-fluorophenyl)-1H-pyrrolo[3,2-b]pyridin-2-yl]pyridin-2-yl}acetamide], the IC50 stood at 1.87 nM at CSNK1A1 and 3.4 nM at CSNK1D.
The matching figures for `CC(C)C(C(=O)Nc1cc(-c2[nH]c3ccc(F)nc3c2-c2ccccn2)ccn1)c1ccc(F)cc1` (single isomer, unassigned; (-)) [Example 25, (−)-2-(4-fluorophenyl)-N-{4-[5-fluoro-3-(pyridin-2-yl)-1H-pyrrolo[3,2-b]pyridin-2-yl]pyridin-2-yl}-3-methylbutanamide]: 23.9 nM and 56.3 nM.
With `O=C(Cc1ccc(F)cc1)Nc1cc(-c2[nH]c3c(N4CCCC4=O)ccnc3c2-c2ccccn2)ccn1` [Example 40, 2-(4-fluorophenyl)-N-{4-[7-(2-oxopyrrolidin-1-yl)-3-(pyridin-2-yl)-1H-pyrrolo[3,2-b]pyridin-2-yl]pyridin-2-yl}acetamide], the IC50 is 6.26 nM at CSNK1A1 and 10.3 nM on CSNK1D.
